Experimental data as given in US20220162191A1, “SMALL MOLECULE MODULATORS OF IL-17” (LEO PHARMA A/S, priority 2019, published 2022).

molecular target: T1, human IL-17AA (Homo sapiens, UniProt Q16552); assay: IL-8 release assay in human epithelial keratinocytes adult (HEKa); type: cell-based; settings: 3 ng/ml human IL-17AA + 10 ng/ml human TNFalpha, 68-72 h, IL-8 by HTRF, read-out: Rel EC50 L-8 release assay
T1 construct: host or cells: HEK (human embryonic kidney) cells
T1 sequence (Q16552 24-155) 1: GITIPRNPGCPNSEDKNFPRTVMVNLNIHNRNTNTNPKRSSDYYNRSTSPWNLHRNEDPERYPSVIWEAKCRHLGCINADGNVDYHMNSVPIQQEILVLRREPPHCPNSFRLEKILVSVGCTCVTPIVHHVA
T1 sequence (Q16552 24-155) 2: T1 sequence (Q16552 24-155) 1
In short: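 Adult human keratinocytes in Epilife with HKGS minus hydrocortisone, treated with compound then stimulated with final 3 ng/ml HEK-derived human IL-17AA plus 10 ng/ml TNF-alpha for 68–72 h at 37 °C; TNF-alpha alone defines 100% inhibition. Secreted IL-8 by HTRF; relative IC50 and Emax from four-parameter fits.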

| Compound | EC50 [nM] |
| --- | --- |
| Cc1n[nH]c(C)c1-c1ccc(NC(=O)[C@H](Cc2cc(-c3ccnc(N4CCCC5(COC5)C4)n3)ccc2Cl)NC(=O)C2(F)CC2)cc1 [Example 319, N-[(1S)-1-[[2-chloro-5-[2-(2-oxa-8-azaspiro[3.5]nonan-8-yl)pyrimidin-4-yl]phenyl]methyl]-2-[4-(3,5-dimethyl-1H-pyrazol-4-yl)anilino]-2-oxo-ethyl]-1-fluoro-cyclopropanecarboxamide] | < 100 |
| Cc1cnn(C)c1-c1ccc(NC(=O)[C@H](Cc2cc(-c3ccc(=O)n(C(C)C)c3)ccc2Cl)NC(=O)c2ccon2)cc1 [Example 337, N-[(1S)-1-[[2-chloro-5-(1-isopropyl-6-oxo-3-pyridyl)phenyl]methyl]-2-[4-(2,4-dimethylpyrazol-3-yl)anilino]-2-oxo-ethyl]isoxazole-3-carboxamide] | 100 to 1000 |
| Cc1n[nH]c(C)c1-c1ccc(NC(=O)[C@@H](NC(=O)C2(F)CC2)[C@@H]2CCc3ccc(-c4cc(N5C[C@@H]6C[C@H]5CO6)ncn4)cc32)cc1 [Example 356, N-[(1S)-2-[4-(3,5-dimethyl-1H-pyrazol-4-yl)anilino]-1-[(1R)-6-[6-[(1S,4S)-2-oxa-5-azabicyclo[2.2.1]heptan-5-yl]pyrimidin-4-yl]indan-1-yl]-2-oxo-ethyl]-1-fluoro-cyclopropanecarboxamide] | 100 to 1000 |
| Cc1n[nH]cc1-c1ccc(NC(=O)C(NC(=O)OC2CC2)C(c2ccccc2)c2cccc(-c3ccc(=O)n(C(C)C)c3)c2)cc1 (single isomer, unassigned; diastereomer 2) [Example 243, cyclopropyl N-[1-[[3-(1-isopropyl-6-oxo-3-pyridyl)phenyl]-phenyl-methyl]-2-[4-(3-methyl-1H-pyrazol-4-yl)anilino]-2-oxo-ethyl]carbamate (Diastereomer 2)] | 100 to 1000 |
| Cc1n[nH]c(C)c1-c1ccc(NC(=O)[C@H](NC(=O)C2(F)CC2)[C@H](C)c2cccc(-c3ccnc(N4C[C@@H]5C[C@H]4CO5)c3)c2)cc1 [Example 340, N-[(1R,2R)-1-[[4-(3,5-dimethyl-1H-pyrazol-4-yl)phenyl]carbamoyl]-2-[3-[2-[(1S,4S)-2-oxa-5-azabicyclo[2.2.1]heptan-5-yl]-4-pyridyl]phenyl]propyl]-1-fluoro-cyclopropanecarboxamide] | 100 to 1000 |
| Cc1n[nH]c(C)c1-c1ccc(NC(=O)[C@@H](NC(=O)c2ccnn2C)[C@@H]2CCc3ccc(-c4cnn(C5CC5)c4)cc32)cc1 [Example 8, N-[(1S)-1-[(1R)-6-(1-cyclopropylpyrazol-4-yl)indan-1-yl]-2-[4-(3,5-dimethyl-1H-pyrazol-4-yl)anilino]-2-oxo-ethyl]-2-methyl-pyrazole-3-carboxamide] | < 100 |
| Cn1cncc1-c1ccc(NC(=O)C(Cc2cc(-c3ccnc(N4CC[C@H]4CO)c3)ccc2Cl)NC(=O)c2ccnn2C)cc1 (stereo partly drawn) [Example 188, N-[1-[[2-chloro-5-[2-[(2S)-2-(hydroxymethyl)azetidin-1-yl]-4-pyridyl]phenyl]methyl]-2-[4-(3-methylimidazol-4-yl)anilino]-2-oxo-ethyl]-2-methyl-pyrazole-3-carboxamide] | 100 to 1000 |
| Cc1nocc1C(=O)N[C@@H](Cc1cc(-c2ccnc(C(O)C3CC3)c2)ccc1Cl)C(=O)Nc1ccc(-n2ccnc2C)cc1 (stereo partly drawn) [Example 125, N-[(1S)-1-[[2-chloro-5-[2-[cyclopropyl(hydroxy)methyl]-4-pyridyl]phenyl]methyl]-2-[4-(2-methylimidazol-1-yl)anilino]-2-oxo-ethyl]-3-methyl-isoxazole-4-carboxamide] | 100 to 1000 |
| Cc1cc(-c2ccc3c(c2)[C@H]([C@H](NC(=O)C2(F)CC2)C(=O)Nc2ccc(-c4c(C)n[nH]c4C)cc2)CC3)nc(N2C[C@@H]3C[C@H]2CO3)n1 [Example 370, N-[(1S)-2-[4-(3,5-dimethyl-1H-pyrazol-4-yl)anilino]-1-[(1R)-6-[6-methyl-2-[(1S,4S)-2-oxa-5-azabicyclo[2.2.1]heptan-5-yl]pyrimidin-4-yl]indan-1-yl]-2-oxo-ethyl]-1-fluoro-cyclopropanecarboxamide] | < 100 |
| Cc1cnn(C)c1-c1ccc(NC(=O)[C@@H](NC(=O)c2ccnn2C)[C@@H]2CCc3ccc(-c4cncc(C5CC5)n4)cc32)cc1 [Example 380, N-[(1S)-1-[(1R)-6-(6-cyclopropylpyrazin-2-yl)indan-1-yl]-2-[4-(2,4-dimethylpyrazol-3-yl)anilino]-2-oxo-ethyl]-2-methyl-pyrazole-3-carboxamide] | 100 to 1000 |
| Cc1cc(-c2ccc3c(c2)[C@H]([C@H](NC(=O)C2(F)CC2)C(=O)Nc2ccc(-n4ccnc4C)cc2)CCC3)cn(C(C)C)c1=O [Example 406, 1-fluoro-N-[(1S)-1-[(1R)-7-(1-isopropyl-5-methyl-6-oxo-3-pyridyl)tetralin-1-yl]-2-[4-(2-methylimidazol-1-yl)anilino]-2-oxo-ethyl]cyclopropanecarboxamide] | 100 to 1000 |
| CC(C)n1cc(-c2ccc(Cl)c(CC(NC(=O)c3conc3C(F)(F)F)C(=O)Nc3ccc(-c4nncn4C)cc3)c2)ccc1=O (centres unmarked) [Example 95, N-[1-[[2-chloro-5-(1-isopropyl-6-oxo-3-pyridyl)phenyl]methyl]-2-[4-(4-methyl-1,2,4-triazol-3-yl)anilino]-2-oxo-ethyl]-3-(trifluoromethyl)isoxazole-4-carboxamide] | > 1000 |
| CC(C)n1nccc1C(=O)N[C@@H](Cc1cc(-c2ccc(=O)n(C(C)C)c2)ccc1Cl)C(=O)Nc1ccc(-c2nncn2C)cc1 [Example 91, N-[(1S)-1-[[2-chloro-5-(1-isopropyl-6-oxo-3-pyridyl)phenyl]methyl]-2-[4-(4-methyl-1,2,4-triazol-3-yl)anilino]-2-oxo-ethyl]-2-isopropyl-pyrazole-3-carboxamide] | 100 to 1000 |
| Cc1nccn1-c1ccc(NC(=O)[C@H](Cc2cc(-c3ccnc(C(O)C4CC4)c3)ccc2Cl)NC(=O)C2(F)CC2)cc1 (stereo partly drawn) [Example 126, N-[(1S)-1-[[2-chloro-5-[2-[cyclopropyl(hydroxy)methyl]-4-pyridyl]phenyl]methyl]-2-[4-(2-methylimidazol-1-yl)anilino]-2-oxo-ethyl]-1-fluoro-cyclopropanecarboxamide] | 100 to 1000 |
| CC(C)n1cc(-c2ccc3c(c2)C([C@H](NC(=O)c2ccnn2C)C(=O)Nc2ccc(-c4cncn4C)cc2)CC3)ccc1=O (stereo partly drawn) [Example 25, N-[(1S)-1-[6-(1-isopropyl-6-oxo-3-pyridyl)indan-1-yl]-2-[4-(3-methylimidazol-4-yl)anilino]-2-oxo-ethyl]-2-methyl-pyrazole-3-carboxamide] | 100 to 1000 |
| CC(C)n1cc(-c2ccc3c(c2)[C@@H]([C@@H](NC(=O)c2ccnn2C)C(=O)Nc2ccc(-c4cncn4C)cc2)CCC3)ccc1=O [Example 48, N-[(1R)-1-[(1S)-7-(1-isopropyl-6-oxo-3-pyridyl)tetralin-1-yl]-2-[4-(3-methylimidazol-4-yl)anilino]-2-oxo-ethyl]-2-methyl-pyrazole-3-carboxamide] | > 1000 |
| Cn1cncc1-c1ccc(NC(=O)C(Cc2cc(-c3ccnc(N4CCOCC4)c3)ccc2Cl)NC(=O)c2ccnn2C)cc1 (centres unmarked) [Example 165, N-[1-[[2-chloro-5-(2-morpholino-4-pyridyl)phenyl]methyl]-2-[4-(3-methylimidazol-4-yl)anilino]-2-oxo-ethyl]-2-methyl-pyrazole-3-carboxamide] | 100 to 1000 |
| Cc1nocc1C(=O)N[C@@H](Cc1cc(-c2ccnc(C(C)(C)C)c2)ccc1Cl)C(=O)Nc1ccc(-c2nncn2C)cc1 [Example 128, N-[(1S)-1-[[5-(2-tert-butyl-4-pyridyl)-2-chloro-phenyl]methyl]-2-[4-(4-methyl-1,2,4-triazol-3-yl)anilino]-2-oxo-ethyl]-3-methyl-isoxazole-4-carboxamide] | 100 to 1000 |
| Cc1cnn(C)c1-c1ccc(NC(=O)[C@H](Cc2cc(-c3ccc(=O)n(C(C)C)c3)ccc2Cl)NC(=O)C(C)C)cc1 [Example 328, N-[(1S)-1-[[2-chloro-5-(1-isopropyl-6-oxo-3-pyridyl)phenyl]methyl]-2-[4-(2,4-dimethylpyrazol-3-yl)anilino]-2-oxo-ethyl]-2-methyl-propanamide] | > 1000 |
| Cn1cncc1-c1ccc(NC(=O)C(Cc2cc(-c3ccnc(N4CC(CO)C4)c3)ccc2Cl)NC(=O)c2ccnn2C)cc1 (centres unmarked) [Example 190, N-[1-[[2-chloro-5-[2-[3-(hydroxymethyl)azetidin-1-yl]-4-pyridyl]phenyl]methyl]-2-[4-(3-methylimidazol-4-yl)anilino]-2-oxo-ethyl]-2-methyl-pyrazole-3-carboxamide] | 100 to 1000 |
| Cc1n[nH]cc1-c1ccc(NC(=O)[C@H](Cc2cc(-c3ccc(=O)n(C(C)C)c3)ccc2Cl)NC(=O)C2(F)CC2)cc1 [Example 136, N-[(1S)-1-[[2-chloro-5-(1-isopropyl-6-oxo-3-pyridyl)phenyl]methyl]-2-[4-(3-methyl-1H-pyrazol-4-yl)anilino]-2-oxo-ethyl]-1-fluoro-cyclopropanecarboxamide] | 100 to 1000 |
| Cc1cnn(C)c1-c1ccc(NC(=O)[C@@H](NC(=O)C2(F)CC2)[C@@H]2CCc3ccc(-c4cnnc(C5CC5)c4)cc32)cc1 [Example 385, N-[(1S)-1-[(1R)-6-(6-cyclopropylpyridazin-4-yl)indan-1-yl]-2-[4-(2,4-dimethylpyrazol-3-yl)anilino]-2-oxo-ethyl]-1-fluoro-cyclopropanecarboxamide] | 100 to 1000 |
| Cc1n[nH]c(C)c1-c1ccc(NC(=O)[C@H](Cc2cc(-c3cccc(CN(C)C)c3)ccc2Cl)NC(=O)c2ccnn2C)cc1 [Example 60, N-[(1S)-1-[[2-chloro-5-[3-[(dimethylamino)methyl]phenyl]phenyl]methyl]-2-[4-(3,5-dimethyl-1H-pyrazol-4-yl)anilino]-2-oxo-ethyl]-2-methyl-pyrazole-3-carboxamide] | < 100 |
